Assay results reported in US9499550B2 (BRISTOL-MYERS SQUIBB COMPANY, priority 2012, dated 2016).
Like-named read-outs stand apart in the source and are kept apart here.

Columns and labels:
[1] = test system: HCV genotype 1a (H77 strain) replicon in HUH-7 cells; assay: HCV replicon luciferase reporter assay, genotype 1a; type: cell-based; conditions: Hepatitis C virus, Huh-7, 72 h, 3 days incubation, read-out: LE_1a (EC50, range)
Outline: (§1)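 Replicon inhibition for both genotypes was measured as Renilla luciferase signal (EnduRen, 7.5 μM final, 2 h) after 3-day, 37° C exposure of replicon-bearing HUH-7 cells in 4% FCS DMEM, 0.5% DMSO. The 1b construct carries S1179I; the 1a H77 construct carries P1496L and S2204I. Twenty-point, 3-fold dilutions were fitted four-parametrically for EC50, and CC50 was taken from multiplexed Cell Titer-Blue.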

[2] = test system: HCV genotype 1b (Con1) replicon in HUH-7 cells; assay: HCV replicon luciferase reporter assay, genotype 1b; type: cell-based; conditions: Hepatitis C virus, Huh-7, 72 h, 3 days incubation, read-out: LE_1b (EC50, range)
Outline: as §1

[3] = HCV genotype 1a replicon luciferase
[4] = HCV genotype 1b replicon luciferase
[5] = HCV genotype 1a replicon luciferase assay, range class
[6] = HCV genotype 1b replicon luciferase assay, range class
[7] = GETYPE1A, HCV genotype 1a replicon luciferase
[8] = GETYPE1B, HCV genotype 1b replicon luciferase

SMILES	EC50 [1, 3]	EC50 [2, 4]	EC50 [1, 5]	EC50 [2, 6]	other results
CC(C)Oc1ccc2c(O[C@@H]3C[C@H]4C(=O)N[C@]5(C(=O)NS(=O)(=O)C6(C)CC6)C[C@H]5/C=C\CC[C@H](C)C[C@@H](C)[C@H](NC(=O)OC(C)(C)C)C(=O)N4C3)nccc2c1 [Compound 5156, tert-butyl ((2R,6S,7R,9S,13aS,14aR,16aS,Z)-2-((6-isopropoxyisoquinolin-1-yl)oxy)-7,9-dimethyl-14a-(((1-methylcyclopropyl)sulfonyl)carbamoyl)-5,16-dioxo-1,2,3,5,6,7,8,9,10,11,13a,14,14a,15,16,16a-hexadecahydrocyclopropa[e]pyrrolo[1,2-a][1,4]diazacyclopentadecin-6-yl)carbamate]	4.82 to 103 nM	4.82 to 103 nM	–	–	–
COc1cc2ccnc(O[C@@H]3C[C@H]4C(=O)N[C@]5(C(=O)NS(=O)(=O)C6(CF)CC6)C[C@H]5/C=C\CC[C@@H](C)C[C@@H](C)[C@H](NC(=O)C5(C(F)(F)F)CC5)C(=O)N4C3)c2cc1F [Compound 4090, (2R,6S,7R,9R,13aS,14aR,16aS,Z)-2-(7-fluoro-6-methoxyisoquinolin-1-yloxy)-N-(1-(fluoromethyl)cyclopropylsulfonyl)-7,9-dimethyl-5,16-dioxo-6-(1-(trifluoromethyl)cyclopropanecarboxamido)-1,2,3,5,6,7,8,9,10,11,13a,14,14a,15,16,16a-hexadecahydrocyclopropa[e]pyrrolo[1,2-a][1,4]diazacyclopentadecine-14a-carboxamide]	< 5.46 nM	< 5.46 nM	–	–	–
CCN(C)c1cc2cc(OC)ccc2c(O[C@@H]2C[C@H]3C(=O)N[C@]4(C(=O)NS(=O)(=O)C5(CF)CC5)C[C@H]4/C=C\CC[C@H](C)C[C@@H](C)[C@H](NC(=O)OC(C)(C)C)C(=O)N3C2)n1 [Compound 1134, tert-butyl ((2R,6S,7R,9S,13aS,14aR,16aS,Z)-2-((3-(ethyl(methyl)amino)-6-methoxyisoquinolin-1-yl)oxy)-14a-(((1-(fluoromethyl)cyclopropyl)sulfonyl)carbamoyl)-7,9-dimethyl-5,16-dioxo-1,2,3,5,6,7,8,9,10,11,13a,14,14a,15,16,16a-hexadecahydrocyclopropa[e]pyrrolo[1,2-a][1,4]diazacyclopentadecin-6-yl)carbamate]	–	–	> 87.4 nM	> 87.4 nM	–
CCCOc1cc2c(Cl)cccc2c(O[C@@H]2C[C@H]3C(=O)N[C@]4(C(=O)NS(=O)(=O)C5(C)CC5)C[C@H]4/C=C\CC[C@@H](C)C[C@@H](C)[C@H](NC(=O)OC4C[C@@H]5C[C@H]5C4)C(=O)N3C2)n1 [Compound 1088, (1S,5S)-bicyclo[3.1.0]hexan-3-yl((2R,6S,7R,9R,13aS,14aR,16aS,Z)-2-((5-chloro-3-propoxyisoquinolin-1-yl)oxy)-7,9-dimethyl-14a-(((1-methylcyclopropyl)sulfonyl)carbamoyl)-5,16-dioxo-1,2,3,5,6,7,8,9,10,11,13a,14,14a,15,16,16a-hexadecahydrocyclopropa[e]pyrrolo[1,2-a][1,4]diazacyclopentadecin-6-yl)carbamate]	–	–	< 5.46 nM	< 5.46 nM	–
COc1cnc2ccc(O[C@@H]3C[C@H]4C(=O)N[C@]5(C(=O)NS(=O)(=O)C6(C)CC6)C[C@H]5/C=C\CC[C@@H](C)C[C@@H](C)[C@H](NC(=O)OC(C)(C)C(F)(F)F)C(=O)N4C3)cc2n1 [Compound 4339]	–	–	–	–	EC50 [1, 7]: 0.1 to 0.5 nM; EC50 [2, 8]: 0.1 to 0.5 nM
COc1cnc(O[C@@H]2C[C@H]3C(=O)N[C@]4(C(=O)NS(=O)(=O)C5(CF)CC5)C[C@H]4/C=C\CC[C@@H](C)C[C@@H](C)[C@H](NC(=O)OC4(C(C)C)COC4)C(=O)N3C2)c2ccccc12 [Compound 1054, 3-isopropyloxetan-3-yl ((2R,6S,7R,9R,13aS,14aR,16aS,Z)-14a-(((1-(fluoromethyl)cyclopropyl)sulfonyl)carbamoyl)-2-((4-methoxyisoquinolin-1-yl)oxy)-7,9-dimethyl-5,16-dioxo-1,2,3,5,6,7,8,9,10,11,13a,14,14a,15,16,16a-hexadecahydrocyclopropa[e]pyrrolo[1,2-a][1,4]diazacyclopentadecin-6-yl)carbamate]	–	–	< 5.46 nM	< 5.46 nM	–
COc1ccc2c(O[C@@H]3C[C@H]4C(=O)N[C@]5(C(=O)NS(=O)(=O)C6CC6)C[C@H]5/C=C\CC[C@@H](C)C[C@@H](C)[C@H](NC(=O)OCC5(C)CC5)C(=O)N4C3)nc(-c3ccc(OC(C)C)c(F)c3)cc2c1 [Compound 3066, (1-methylcyclopropyl)methyl ((2R,6S,7R,9R,13aS,14aR,16aS,Z)-14a-((cyclopropylsulfonyl)carbamoyl)-2-((3-(3-fluoro-4-isopropoxyphenyl)-6-methoxyisoquinolin-1-yl)oxy)-7,9-dimethyl-5,16-dioxo-1,2,3,5,6,7,8,9,10,11,13a,14,14a,15,16,16a-hexadecahydrocyclopropa[e]pyrrolo[1,2-a][1,4]diazacyclopentadecin-6-yl)carbamate]	–	–	< 5.46 nM	< 5.46 nM	–
COc1cc2ccnc(O[C@@H]3C[C@H]4C(=O)N[C@]5(C(=O)NS(=O)(=O)C6CC6)C[C@H]5/C=C\CC[C@@H](C)C[C@@H](C)[C@H](NC(=O)OC(C)(C)C(F)(F)F)C(=O)N4C3)c2cc1F [Compound 4169]	–	–	–	–	EC50 [1, 7]: < 5.46 nM; EC50 [2, 8]: < 5.46 nM
COc1ccc2c(O[C@@H]3C[C@H]4C(=O)N[C@]5(C(=O)NS(=O)(=O)C6(C)CC6)C[C@H]5/C=C\CC[C@@H](C)C[C@@H](C)[C@H](NC(=O)O[C@@H]5C[C@@H]6C[C@@H]6C5)C(=O)N4C3)nc(N(C)C)cc2c1 [Compound 3111, (1R,3r,5S)-bicyclo[3.1.0]hexan-3-yl((2R,6S,7R,9R,13aS,14aR,16aS,Z)-2-((3-(dimethylamino)-6-methoxyisoquinolin-1-yl)oxy)-7,9-dimethyl-14a-(((1-methylcyclopropyl)sulfonyl)carbamoyl)-5,16-dioxo-1,2,3,5,6,7,8,9,10,11,13a,14,14a,15,16,16a-hexadecahydrocyclopropa[e]pyrrolo[1,2-a][1,4]diazacyclopentadecin-6-yl)carbamate]	–	–	< 5.46 nM	4.82 to 103 nM	–
COc1cc2ccnc(O[C@@H]3C[C@H]4C(=O)N[C@]5(C(=O)NS(=O)(=O)C6(C(F)F)CC6)C[C@H]5/C=C\CC[C@@H](C)C[C@@H](C)[C@H](NC(=O)OC(C)(C)C(F)(F)F)C(=O)N4C3)c2cc1F [Compound 4093]	–	–	–	–	EC50 [1, 7]: < 5.46 nM; EC50 [2, 8]: < 5.46 nM
CC[C@@H]1C[C@H](C)CC/C=C\[C@@H]2C[C@@]2(C(=O)NS(=O)(=O)C2CC2)NC(=O)[C@@H]2C[C@@H](Oc3nc4cc(OC)c(F)cc4nc3C(F)(F)F)CN2C(=O)[C@H]1NC(=O)OC(C)(C)C(F)(F)F [Compound 4267]	–	–	–	–	EC50 [1, 7]: 5.01 to 35 nM; EC50 [2, 8]: 1.01 to 5 nM
CC[C@@H]1C[C@H](C)CC/C=C\[C@@H]2C[C@@]2(C(=O)NS(=O)(=O)C2(CF)CC2)NC(=O)[C@@H]2C[C@@H](Oc3nccc4cc(OC)ccc34)CN2C(=O)[C@H]1NC(=O)OC(C)(C)C [Compound 4204, tert-butyl (2R,6S,7R,9R,13aS,14aR,16aS,Z)-7-ethyl-14a-(1-(fluoromethyl)cyclopropylsulfonylcarbamoyl)-2-(6-methoxyisoquinolin-1-yloxy)-9-methyl-5,16-dioxo-1,2,3,5,6,7,8,9,10,11,13a,14,14a,15,16,16a-hexadecahydrocyclopropa[e]pyrrolo[1,2-a][1,4]diazacyclopentadecin-6-ylcarbamate]	< 5.46 nM	< 5.46 nM	–	–	–
CC[C@@H]1C[C@@H](C)CC/C=C\[C@@H]2C[C@@]2(C(=O)NS(=O)(=O)C2(C)CC2)NC(=O)[C@@H]2C[C@@H](Oc3nc(OC)cc4ccccc34)CN2C(=O)[C@H]1NC(=O)OC(C)(C)C [Compound 6004, tert-butyl ((2R,6S,7R,9S,13aS,14aR,16aS,Z)-7-ethyl-2-((3-methoxyisoquinolin-1-yl)oxy)-9-methyl-14a-(((1-methylcyclopropyl)sulfonyl)carbamoyl)-5,16-dioxo-1,2,3,5,6,7,8,9,10,11,13a,14,14a,15,16,16a-hexadecahydrocyclopropa[e]pyrrolo[1,2-a][1,4]diazacyclopentadecin-6-yl)carbamate]	4.82 to 103 nM	< 5.46 nM	–	–	–
CC[C@@H]1C[C@H](C)CC/C=C\[C@@H]2C[C@@]2(C(=O)NS(=O)(=O)C2(CF)CC2)NC(=O)[C@@H]2C[C@@H](Oc3nccc4c5c(ccc34)OCCO5)CN2C(=O)[C@H]1NC(=O)OC(C)(C)C(F)(F)F [Compound 5427, 1,1,1-trifluoro-2-methylpropan-2-yl((2R,6S,7R,9R,13aS,14aR,16aS,Z)-2-((2,3-dihydro-[1,4]dioxino[2,3-f]isoquinolin-7-yl)oxy)-7-ethyl-14a-(((1-(fluoromethyl)cyclopropyl)sulfonyl)carbamoyl)-9-methyl-5,16-dioxo-1,2,3,5,6,7,8,9,10,11,13a,14,14a,15,16,16a-hexadecahydrocyclopropa[e]pyrrolo[1,2-a][1,4]diazacyclopentadecin-6-yl)carbamate]	5.01 to 35 nM	5.01 to 35 nM	–	–	–
